How the values were obtained:
[1] = system: UGT; assay: UGT reaction phenotyping, all the UGTs combined; assay type: in vitro ADME, Human
Description: Experimental Summary: UGT Reaction Phenotyping (7 Isoforms).

[2] = target: T1, rUGT1A9 (Homo sapiens, UniProt O60656); assay: Inhibition of CBG glucuronidation by Compound 1; assay type: biochemical; conditions: for CBG detected, Percent of control / CBG glucuronide formed, Percent of control: rUGT1A9; for CBG detected / CBG glucuronide formed: rUGT1A9, 4 min
T1 sequence (O60656 26-530): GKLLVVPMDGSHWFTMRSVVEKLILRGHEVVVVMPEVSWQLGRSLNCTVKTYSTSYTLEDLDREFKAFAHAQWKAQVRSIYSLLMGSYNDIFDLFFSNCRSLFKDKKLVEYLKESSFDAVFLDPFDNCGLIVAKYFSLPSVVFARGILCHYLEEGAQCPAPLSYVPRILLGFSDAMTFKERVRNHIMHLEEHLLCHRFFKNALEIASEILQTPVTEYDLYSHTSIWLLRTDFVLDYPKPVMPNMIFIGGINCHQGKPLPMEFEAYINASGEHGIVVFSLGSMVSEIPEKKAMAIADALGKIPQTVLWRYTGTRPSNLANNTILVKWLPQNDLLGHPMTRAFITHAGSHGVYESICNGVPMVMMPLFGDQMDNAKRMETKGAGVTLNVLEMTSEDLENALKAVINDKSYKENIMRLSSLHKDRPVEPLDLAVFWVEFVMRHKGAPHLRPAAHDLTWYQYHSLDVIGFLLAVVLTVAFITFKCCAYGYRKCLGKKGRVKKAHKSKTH
Description: (§1) The purpose of this experiment was to determine if Compound 1 can inhibit the glucuronidation of CBG, as both are substrates for the two major isoforms responsible for CBG glucuronidation.
(§2) The ability of Compound 1 to inhibit the metabolism of CBG by UGT1A9 and UGT2B7 enzymes was investigated to ascertain the ICso values for direct inhibition. The incubation conditions (substrate concentration, incubation time and protein concentration) were determined in Part 2 of the protocol such that CBG metabolism remains near initial rate conditions (e.g., 20-30% substrate loss).
(§3) Preliminary experiments were conducted in Part I of the protocol, first to establish the HPLC/MS/MS bioanalytical methods for CBG and CBG glucuronide. […] The second set of preliminary experiments (Part 2), as mentioned, were conducted to optimize the incubation conditions as described above. Incubations (at 37 C) contained Tris-HCl buffer (100 mM, pH 7.7), MgCl2 (10 mM), EDTA (1 mM, pH 7.4) and UDP-glucuronic acid (UDPGA, 10 mM). CBG was added to each incubation in DMSO such that the final percent of DMSO was 1% v/v, or less. Reactions were terminated by the addition of an equal volume of stop reagent, acetonitrile containing an internal standard. The samples were centrifuged (e.g., 920 RCF for 10 minutes at 10° C.), and the supernatant fractions were analyzed by LC-MS/MS to determine the amount of CBG remaining and formation of one metabolite (CBG glucuronide).
(§4) To examine its ability to act as a direct inhibitor of the above listed enzymes, Compound 1 was be added to recombinant human UGT enzyme together with CBG. Reactions were initiated with UDPGA and were carried out in duplicate. For all assays, reactions were terminated by the addition of acetonitrile with or without 2% v/v formic acid, including the internal standard.
(§5) Authentic metabolite reference standards were used for quantitation of the probe substrate metabolites and as internal standards. Based on the information obtained in the Part 2 experiments, the following table summarizes the experiments performed, assessing the inhibitory effects of Compound 1 was conducted as follows:
(§6) The amounts of CBG present at the end of the incubation periods was determined. For inhibition to have occurred, the amounts of CBG present at the end of the incubation period needed to increase, and the amounts of glucuronide formed needed to decrease.

[3] = target: T2, rUGT2B7 (Homo sapiens, UniProt P16662); assay: Inhibition of CBG glucuronidation by Compound 1; assay type: biochemical; conditions: for CBG detected, Percent of control / CBG glucuronide formed, Percent of control: rUGT2B7; for CBG detected / CBG glucuronide formed: rUGT2B7, 5 min
T2 sequence (P16662 24-529): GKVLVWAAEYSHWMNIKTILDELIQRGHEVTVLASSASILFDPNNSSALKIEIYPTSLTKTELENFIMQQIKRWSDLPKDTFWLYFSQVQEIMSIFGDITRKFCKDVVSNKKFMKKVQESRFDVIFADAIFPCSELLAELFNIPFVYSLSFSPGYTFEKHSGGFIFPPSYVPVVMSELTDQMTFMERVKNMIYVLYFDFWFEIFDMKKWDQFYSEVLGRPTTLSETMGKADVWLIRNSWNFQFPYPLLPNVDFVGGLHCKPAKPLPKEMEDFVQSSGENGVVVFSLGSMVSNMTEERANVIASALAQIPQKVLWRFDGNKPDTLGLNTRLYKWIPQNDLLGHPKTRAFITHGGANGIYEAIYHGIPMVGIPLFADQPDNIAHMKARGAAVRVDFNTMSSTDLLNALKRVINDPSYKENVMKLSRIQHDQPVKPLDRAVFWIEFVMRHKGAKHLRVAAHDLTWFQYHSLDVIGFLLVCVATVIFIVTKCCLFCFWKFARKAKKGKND
Description: as §1, §2, §3, §4, §5, §6

With `CCCCCc1cc(O)c(C/C=C(\C)CCC=C(C)C)c(OC)c1` [Compound 1, (E)-2-(3,7-dimethylocta-2,6-dien-1-yl)-3-methoxy-5-pentylphenol] the “Total UGT activity relative to that observed with CBG” value [1] was 23%, the “share of total UGT activity associated with UGT1A9 and UGT2B7” value [1] was 73% and the “CBG detected, Percent of control” value ([2]; 10 μM CBG + 0.01 μM Compound 1) was 109% of control. For the same compound, the “CBG glucuronide formed, Percent of control” value ([2]; 10 μM CBG + 0.01 μM Compound 1) was 94.4% of control, the CBG detected ([2]; 10 μM CBG + 0.01 μM Compound 1) was 1250 pmol and the CBG glucuronide formed ([2]; 10 μM CBG + 0.01 μM Compound 1) was 350000 area ratio. The “CBG detected, Percent of control” value ([2]; 10 μM CBG + 0.03 μM Compound 1) was 110% of control, the “CBG glucuronide formed, Percent of control” value ([2]; 10 μM CBG + 0.03 μM Compound 1) was 97.1% of control and the CBG detected ([2]; 10 μM CBG + 0.03 μM Compound 1) was 1250 pmol. For the same compound, the CBG glucuronide formed ([2]; 10 μM CBG + 0.03 μM Compound 1) was 360000 area ratio, the “CBG detected, Percent of control” value ([2]; 10 μM CBG + 0.1 μM Compound 1) was 112% of control and the “CBG glucuronide formed, Percent of control” value ([2]; 10 μM CBG + 0.1 μM Compound 1) was 92.0% of control. For the same compound, the CBG detected ([2]; 10 μM CBG + 0.1 μM Compound 1) was 1280 pmol, the CBG glucuronide formed ([2]; 10 μM CBG + 0.1 μM Compound 1) was 341000 area ratio and the “CBG detected, Percent of control” value ([2]; 10 μM CBG + 0.3 μM Compound 1) was 114% of control. The “CBG glucuronide formed, Percent of control” value ([2]; 10 μM CBG + 0.3 μM Compound 1) was 94.4% of control, the CBG detected ([2]; 10 μM CBG + 0.3 μM Compound 1) was 1300 pmol and the CBG glucuronide formed ([2]; 10 μM CBG + 0.3 μM Compound 1) was 350000 area ratio. For the same compound, the “CBG detected, Percent of control” value ([2]; 10 μM CBG + 1 μM Compound 1) was 106% of control, the “CBG glucuronide formed, Percent of control” value ([2]; 10 μM CBG + 1 μM Compound 1) was 92.6% of control and the CBG detected ([2]; 10 μM CBG + 1 μM Compound 1) was 1210 pmol. The CBG glucuronide formed ([2]; 10 μM CBG + 1 μM Compound 1) was 343000 area ratio, the “CBG detected, Percent of control” value ([2]; 10 μM CBG + 3 μM Compound 1) was 105% of control and the “CBG glucuronide formed, Percent of control” value ([2]; 10 μM CBG + 3 μM Compound 1) was 93.6% of control. For the same compound, the CBG detected ([2]; 10 μM CBG + 3 μM Compound 1) was 1200 pmol, the CBG glucuronide formed ([2]; 10 μM CBG + 3 μM Compound 1) was 347000 area ratio and the “CBG detected, Percent of control” value ([2]; 10 μM CBG + 10 μM Compound 1) was 99.8% of control. For the same compound, the “CBG glucuronide formed, Percent of control” value ([2]; 10 μM CBG + 10 μM Compound 1) was 92.8% of control, the CBG detected ([2]; 10 μM CBG + 10 μM Compound 1) was 1140 pmol and the CBG glucuronide formed ([2]; 10 μM CBG + 10 μM Compound 1) was 344000 area ratio. For the same compound, the “inhibition of the conversion of CBG to a glucuronide (in words)” value ([2]; UGT1A9, 0.01-10 μM Compound 1) was “not an effective inhibitor”, the “CBG detected, Percent of control” value ([3]; 10 μM CBG + 0.01 μM Compound 1) was 103% of control and the “CBG glucuronide formed, Percent of control” value ([3]; 10 μM CBG + 0.01 μM Compound 1) was 104% of control. The CBG detected ([3]; 10 μM CBG + 0.01 μM Compound 1) was 1370 pmol, the CBG glucuronide formed ([3]; 10 μM CBG + 0.01 μM Compound 1) was 260000 area ratio and the “CBG detected, Percent of control” value ([3]; 10 μM CBG + 0.03 μM Compound 1) was 109% of control. For the same compound, the “CBG glucuronide formed, Percent of control” value ([3]; 10 μM CBG + 0.03 μM Compound 1) was 101% of control, the CBG detected ([3]; 10 μM CBG + 0.03 μM Compound 1) was 1460 pmol and the CBG glucuronide formed ([3]; 10 μM CBG + 0.03 μM Compound 1) was 252000 area ratio. The “CBG detected, Percent of control” value ([3]; 10 μM CBG + 0.1 μM Compound 1) was 106% of control, the “CBG glucuronide formed, Percent of control” value ([3]; 10 μM CBG + 0.1 μM Compound 1) was 103% of control and the CBG detected ([3]; 10 μM CBG + 0.1 μM Compound 1) was 1410 pmol. For the same compound, the CBG glucuronide formed ([3]; 10 μM CBG + 0.1 μM Compound 1) was 257000 area ratio, the “CBG detected, Percent of control” value ([3]; 10 μM CBG + 0.3 μM Compound 1) was 109% of control and the “CBG glucuronide formed, Percent of control” value ([3]; 10 μM CBG + 0.3 μM Compound 1) was 105% of control. For the same compound, the CBG detected ([3]; 10 μM CBG + 0.3 μM Compound 1) was 1450 pmol, the CBG glucuronide formed ([3]; 10 μM CBG + 0.3 μM Compound 1) was 262000 area ratio and the “CBG detected, Percent of control” value ([3]; 10 μM CBG + 1 μM Compound 1) was 109% of control. The “CBG glucuronide formed, Percent of control” value ([3]; 10 μM CBG + 1 μM Compound 1) was 102% of control, the CBG detected ([3]; 10 μM CBG + 1 μM Compound 1) was 1460 pmol and the CBG glucuronide formed ([3]; 10 μM CBG + 1 μM Compound 1) was 253000 area ratio. For the same compound, the “CBG detected, Percent of control” value ([3]; 10 μM CBG + 3 μM Compound 1) was 108% of control, the “CBG glucuronide formed, Percent of control” value ([3]; 10 μM CBG + 3 μM Compound 1) was 101% of control and the CBG detected ([3]; 10 μM CBG + 3 μM Compound 1) was 1440 pmol. The CBG glucuronide formed ([3]; 10 μM CBG + 3 μM Compound 1) was 252000 area ratio, the “CBG detected, Percent of control” value ([3]; 10 μM CBG + 10 μM Compound 1) was 111% of control and the “CBG glucuronide formed, Percent of control” value ([3]; 10 μM CBG + 10 μM Compound 1) was 96.0% of control. For the same compound, the CBG detected ([3]; 10 μM CBG + 10 μM Compound 1) was 1470 pmol, the CBG glucuronide formed ([3]; 10 μM CBG + 10 μM Compound 1) was 239000 area ratio and the “inhibition of the conversion of CBG to a glucuronide (in words)” value ([3]; UGT2B7, 0.01-10 μM Compound 1) was “not an effective inhibitor”.

From patent US11992497B2 (priority 2021, dated 2024)
